Literature values, collected in patent publication US20050272804A1, “Methods of delaying Alzheimer's disease progression using a beta-amyloid precursor protein inhibitor and a HMG CoA reductase inhibitor” (priority 2004, published 2005).

Tests used:
neuronal NOS (nNOS) = conditions: Tg mice, 2.5 mg/kg, i.p., brain extracts
AChE = target: T1, AChE (Rattus norvegicus, UniProt P37136); conditions: rats, after phenserine administration
T1 construct: from tissue
T1 sequence (P37136 32-614): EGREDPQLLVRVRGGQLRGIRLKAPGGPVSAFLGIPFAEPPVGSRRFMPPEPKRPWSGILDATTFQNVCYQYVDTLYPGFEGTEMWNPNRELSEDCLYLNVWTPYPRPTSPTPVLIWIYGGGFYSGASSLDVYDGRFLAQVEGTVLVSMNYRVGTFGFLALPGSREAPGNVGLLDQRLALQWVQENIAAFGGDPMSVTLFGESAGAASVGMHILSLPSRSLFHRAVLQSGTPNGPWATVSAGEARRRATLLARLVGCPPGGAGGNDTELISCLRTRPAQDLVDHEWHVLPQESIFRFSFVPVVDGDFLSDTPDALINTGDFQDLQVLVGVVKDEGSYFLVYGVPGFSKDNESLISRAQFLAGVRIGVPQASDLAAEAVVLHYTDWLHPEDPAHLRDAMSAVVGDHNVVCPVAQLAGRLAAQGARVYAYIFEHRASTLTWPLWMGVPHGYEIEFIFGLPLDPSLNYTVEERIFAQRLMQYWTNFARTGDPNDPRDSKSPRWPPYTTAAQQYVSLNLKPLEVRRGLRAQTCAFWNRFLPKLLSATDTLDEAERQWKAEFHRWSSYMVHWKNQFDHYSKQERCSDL

[1] = test system: brain extracellular acetylcholine (ACh); conditions: striatal microdialysis, conscious freely-moving rats
NOS = conditions: Tg mice, 2.5 mg/kg, i.p., brain extracts
[2] = rats, i.v. dosing
Aβ = conditions: Tg mice, 2.5 mg/kg, i.p.

| SMILES | levels of nNOS protein (neuronal NOS (nNOS)) | half-life of AChE inhibition (AChE) [h] | inhibition of AChE (AChE) [%] | rise in brain ACh levels [1] | NOS activity, treated vs control Tg groups (NOS) | brain drug levels relative to plasma [2] [fold] | time to peak drug level ([2]; brain and plasma) [min] | lowering of brain Aβ levels (Aβ) | anticholinesterase activity (cholinesterase) |
| --- | --- | --- | --- | --- | --- | --- | --- | --- | --- |
| CN1CC[C@@]2(C)c3cc(OC(=O)Nc4ccccc4)ccc3N(C)C12 (single isomer, unassigned) [phenserine] | increased | > 8.25 | > 70 | greater than 3 fold | no significant difference | 10 | ≤ 5 | approximately 50% | – |
| CN1CC[C@]2(C)c3cc(OC(=O)Nc4ccccc4)ccc3N(C)C12 (single isomer, unassigned; (+)) [(+)-Penserine] | – | – | – | – | – | – | – | – | minimal |
